Test results reported in patent US20260008746A1, “CATIONIC LIPID COMPOUND WITH HIGH EFFICIENCY, LOW TOXICITY AND STABLE EXPRESSION, AND COMPOSITION COMPRISNG SAME” (HANGZHOU TIANLONG PHARMACEUTICAL CO., LTD, priority 2023, published 2026).

Legend:
[1] = Determination of particle size and polydispersity index (PDI) of lipid nanoparticles by dynamic light scattering; format: physicochemical; details: LNP formulation of named cationic lipid/DSPC/cholesterol/DMG-PEG2000 49:10:39.5:1.5; for Particle size (nm): 90° scattering angle, 25° C
Procedure: The cationic lipids listed in Table 1 were dissolved in ethanol with DSPC (AVT (Shanghai) Pharmaceutical Technology Co., Ltd.), cholesterol (AVT (Shanghai) Pharmaceutical Technology Co., Ltd.) and DMG-PEG2000 according to a molar ratio of 49:10:39.5:1.5, respectively, to prepare lipid solution in ethanol. The lipid solution in ethanol was quickly added to citrate buffer (pH=4 to 5) by ethanol injection method, and vortexed for 30 s for later use. eGFP-mRNA (from Shanghai Biohub International Trade Co., Ltd) or Fluc-mRNA (from Shanghai Biohub International Trade Co., Ltd) was diluted in citrate buffer (pH=4 to 5) to give an aqueous mRNA solution. A certain volume of liposome solution and mRNA aqueous solution were used to prepare liposomes at a weight ratio of total lipids to mRNA of 15:1. The mixtures were sonicated at 25° C. for 15 min (with an ultrasonic frequency of 40 kHz and an ultrasonic power of 800 W). The resulting liposomes were diluted to 10 times volume with PBS, and then ultrafiltered with a 300 KDa ultrafiltration tube to remove ethanol. Then the volume was fixed to a certain volume with PBS to give an LNP formulation encapsulating eGFP-mRNA or Fluc-mRNA using cationic lipid/DSPC/cholesterol/DMG-PEG2000 (49:10:39.5:1.5 in molar percentage).
The particle size and polydispersity index (PDI) were determined by dynamic light scattering using Malvern laser particle size analyzer.
10 μL of the liposome solution was weighed, diluted to 1 mL with RNase-free deionized water, and added to the sample pool. Each sample was measured in triplicate. The measurement conditions were: 90° scattering angle, and 25° C.

293T cells [2] = experiment: Fluorescent detection of Fluc-mRNA (cell transfection efficiency of LNP formulations); format: cell-based; details: for Relative light unit (RLU): LNP formulation containing 0.3 μg Fluc-mRNA, 96-well plate, 24 hours; for Multiples (YK-107): RLU of YK-107 / RLU of named substance; for Multiples (YK-108): RLU of YK-108 / RLU of named substance; for Ratio relative to SM-102: RLU of named substance / RLU of SM-102
Outline: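 293T cells seeded at 10,000 per well, cultured overnight, then given LNP carrying 0.3 μg Fluc-mRNA (cationic:neutral:structured:PEG-lipid 49:10:39.5:1.5 molar). Incubated 24 h. Luciferase signal read with kit reagent on an IVIS imaging system.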

293T cells [3] = experiment: Cell survival rate determination (CCK-8); format: cell-based; details: for Cell survival rate (%): LNP formulation containing 1.5 μg Fluc-mRNA, 24 hours, CCK-8, absorbance at 450 nm; for cell survival rate lower than that of YK-101: cell survival rate of YK-101 minus that of named substance; for cell survival rate lower than that of YK-107: cell survival rate of YK-107 minus that of named substance; for cell survival rate lower than that of YK-108: cell survival rate of YK-108 minus that of named substance
Outline: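 293T cells were seeded overnight at 10,000 cells/well in 96-well plates, then exposed for 24 h to LNP containing 1.5 μg Fluc-mRNA (cationic:neutral:structural:polymer-conjugated lipid, 49:10:39.5:1.5 molar) or to Lipofectamine 3000. Viability was read by CCK-8, 1 h incubation, absorbance 450 nm.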

BALB/C mice = experiment: In vivo imaging of Fluc-mRNA expression in mice delivered by LNP formulations; details: for average radiation intensity, 6 h / average radiation intensity, 24 h / average radiation intensity, 48 h / average radiation intensity, 7 d: LNP containing 10 pg Fluc-mRNA, intramuscular, female BALB/C mice
Procedure: The LNP formulation containing […] Fluc-mRNA was injected intramuscularly into female BALB/C mice aged 4-6 weeks old and weighed 17-19 g, and the mice were intraperitoneally injected with fluorescent imaging substrate at specific time points after administration (6h, 24 h, 48h and 7d), where the mice were allowed to move freely for 5 minutes, and then the average radiation intensity (corresponding to fluorescence expression intensity) of the protein expression of the mRNA carried by the LNP in the mice was detected by the IVIS Spectrum small animal in vivo imaging device. The test results are shown in Tables 11 to 14 and FIGS. 12 to 14.

PDI(%) [1]	Particle size (nm) [1]	Structure (SMILES)	Relative light unit (RLU) (293T cells [2])	Multiples (YK-107) (293T cells [2])	Multiples (YK-108) (293T cells [2])	Ratio relative to SM-102 (293T cells [2])	Cell survival rate (%) (293T cells [3])	cell survival rate lower than that of YK-101 (293T cells [3])	cell survival rate lower than that of YK-107 (293T cells [3])	cell survival rate lower than that of YK-108 (293T cells [3])	average radiation intensity of YK-101, times that of named substance (BALB/C mice; 6 h)	average radiation intensity of YK-107, times that of named substance (BALB/C mice; 6 h)	average radiation intensity of YK-108, times that of named substance (BALB/C mice; 6 h)	average radiation intensity of YK-101, times that of named substance (BALB/C mice; 24 h)	average radiation intensity of YK-107, times that of named substance (BALB/C mice; 24 h)	average radiation intensity of YK-108, times that of named substance (BALB/C mice; 24 h)	average radiation intensity of YK-101, times that of named substance (BALB/C mice; 48 h)	average radiation intensity of YK-107, times that of named substance (BALB/C mice; 48 h)	average radiation intensity of YK-108, times that of named substance (BALB/C mice; 48 h)	average radiation intensity of YK-101, times that of named substance (BALB/C mice; 7 d)	also measured
15.0%	209 nm	CCCCCCCCC(CCCCCC)C(=O)OCCCCCCN(CCCCO)CCCCCCOC(=O)C(CCCCCC)CCCCCCCC (stereo not drawn) [ALC-0315, reference compound]	2056890 RLU	10.87	11.99	1.34	51.02%	39.10%	39.43%	38.84%	1.8 times	1.9 times	2.4 times	5.9 times	7.2 times	7.8 times	4.8 times	5.8 times	5.9 times	1.8 times	Multiples (YK-101) (293T cells [2]; RLU of YK-101 / RLU of named substance): 9.89; average radiation intensity of YK-107, times that of named substance (BALB/C mice; 7 d): 2.0 times; average radiation intensity of YK-108, times that of named substance (BALB/C mice; 7 d): 2.1 times; average radiation intensity, 6 h (BALB/C mice; 6 h): 830590; average radiation intensity, 24 h (BALB/C mice; 24 h): 179680; average radiation intensity, 48 h (BALB/C mice; 48 h): 39015; average radiation intensity, 7 d (BALB/C mice; 7 d): 6643
26.9%	200 nm	CCCCCCCCCCOC(=O)CCCN(CCO)CCCCC(=O)OCCC(CCCCCC)CCCCCC [YK-104]	1693707 RLU	13.20	14.56	1.10	73.55%	16.57%	16.90%	16.31%	2.0 times	2.1 times	2.7 times	9.3 times	11.4 times	12.3 times	5.6 times	6.8 times	7.0 times	1.5 times	difference from SM-102 in Fluc-mRNA fluorescence (GraphPad Prism analysis) (293T cells [2]; statistical comparison with SM-102): no significant difference; average radiation intensity of YK-107, times that of named substance (BALB/C mice; 7 d): 1.7 times; average radiation intensity of YK-108, times that of named substance (BALB/C mice; 7 d): 1.8 times; average radiation intensity, 6 h (BALB/C mice; 6 h): 747000; average radiation intensity, 24 h (BALB/C mice; 24 h): 113940; average radiation intensity, 48 h (BALB/C mice; 48 h): 33095; average radiation intensity, 7 d (BALB/C mice; 7 d): 7969
